Source: US8957074B2 (Novartis AG, priority 2010, dated 2015)
Where two headings read alike, the source gives them in different places.

How the values were obtained:
CDK4/cyclin D1 = CDK4/cyclin D1 (Homo sapiens (Human), UniProt P11802); assay: CDK4/cyclin D1 enzymatic activity assay (TR-FRET, phosphorylation of pRb at Ser780); type: biochemical
Procedure: CDK4/Cyclin D1 Enzymatic Activity Assay
An assay for monitoring CDK4/cyclin D1-catalyzed phosphorylation of pRb at the Ser780 site was performed using TR-FRET in a 384-well format, and was used for IC50 determination and kinetic analysis. […] 3 μM ATP was added last to initiate the reaction. The reaction was quenched with 10 μL of 240 mM EDTA-Na (pH 8.0) after 60 min incubation at 22° C.
Human CDK4/cyclin D1 was expressed in Sf21 cells via baculovirus infection.

[1] = test system: phosphorylation of pRb at the Ser780 site in JeKo-1 mantle cell lymphoma cells; assay: CDK4 cellular assay: ELISA of pRb phosphorylation at Ser780 in JeKo-1 cells; type: cell-based
Description: Cell-based assay measuring phosphorylation levels of pRb at the Ser780 site using an enzyme-linked immunosorbent assay (ELISA) method (Table 6). JeKo-1, a mantle-cell lymphoma cell line, was selected for use in this assay due to its known translocation and subsequent overexpression of cyclin D1. [Ref: Amin, H. M.; McDonnell, T. J.; Medeiros, L. J.; Rassidakis, G. Z.; Leventaki, V.; O'Connor, S. L.; Keating, M. J.; Lai, R. Characterization of 4 mantle cell lymphoma cell lines—Establishment of an in vitro study model. Arch. Pathol. Lab.
Cells were allowed to adhere overnight. […] 10 μL of the dilution were then transferred to the cell culture plate, resulting in a final concentration range of 10 μM to 2 nM. The incubation was carried out at 37° C. with 5% CO2. All compounds were tested in triplicates at each concentration. […] The plates were placed at 4° C. with vigorous shaking for 5 min to lyse the cells. The resulting lysates contained approximately 1 μg/μL of protein.
Plates were incubated overnight at 4° C. with rocking. […] After shaking for 10 minutes, the Superblock solution was replaced with fresh Superblock and plates were incubated on a shaker for an additional 50 min. After blocking, 30 μL of JeKo-1 cell lysate, containing approximately 10 μg total protein, were added to wells in triplicate. […] For all incubation steps, plates were covered with Uniseal plate sealers. […] Next, 50 μL of a 1:2500 dilution of donkey-anti-rabbit HRP (Promega catalog no. W401B) in PBS/10% Superblock were added, and plates were incubated for 30 min at room temperature on a shaker. Plates were again washed as described above. […] After incubation, 50 μL 2 M sulfuric acid were added to plates to top the reaction, and absorbance was determined on a SpectraMax (Molecular Devices, Sunnydale, Calif.) within 15 minutes at 450 nm. All washes were performed using a Bio-Tek plate washer.
The Total Rb ELISA kit (Invitrogen catalog no. KH00011) was used to determine the levels of total pRb. This kit uses wells precoated with a proprietary total pRb antibody for capture. All reagents listed, with the exception of cell lysate, were included in the kit. The nature of the antibodies used for capture and detection was labeled as proprietary and not disclosed. 10 μg of cell lysate was loaded into the wells and volume adjusted to 50 μL with standard dilution buffer. Plates were sealed with film included in the kit and incubated for 2 h at room temperature on a shaker. Plates are then manually washed three times with 250 μL wash buffer. 50 μL of proprietary primary antibody (pre-conjugated to biotin) was added to wells and incubated for 1 h at room temperature on a shaker. Then plates were again washed as noted above. The secondary antibody (HRP pre-conjugated to Streptavidin) was diluted 1:100 in Streptavidin-HRP diluent buffer and 50 μL was added to each well. Plates were then incubated for 30 min. Afterwards, plates were washed four times with buffer as outlined above. Finally, 50 μL stabilized Chromogen was added per well and plates were incubated for 15 min, at which point 50 μL of stop solution was added. Plates were then read on a Spectramax at 450 nm.
The total pRb levels were then used to adjust the p-pRb % inhibition values to account for any loss of signal due to the absence of the pRb protein itself, and the IC50 values obtained from the adjusted % inhibitions represent normalized cellular p-pRb IC50.

CDK1/cyclin B = CDK1/cyclin B (Homo sapiens (Human), UniProt P06493); assay: CDK1/cyclin B enzymatic activity assay (IMAP-FP); type: biochemical; conditions: […] CDK1/cyclin B, 100 nM Tamra Histone-H1 peptide, 20 μM ATP, 120 min at room temperature; read-out: Biochemical CDK1 enzyme IC50
Description: CDK1/Cyclin B Enzymatic Activity Assay
A 384-well microtiter IMAP-FP™ (Molecular Devices Trade Mark Technology) endpoint assay was used for CDK1/cyclin B kinase activity measurements. The same assay was used for IC50 determination of small molecule inhibitors.

[2] = 0.3 nM CDK4/cyclin D1, 150 nM biotin-pRb (773-924), 3 μM ATP, 60 min at 22° C., read-out: Biochemical CDK4 enzyme IC50
[3] = Homo sapiens, JeKo-1 cells, p-pRb % inhibition adjusted with total pRb levels, read-out: Normalized cellular ppRb inhibition IC50
[4] = Homo sapiens, JeKo-1 cells, p-pRb Ser780 ELISA, non-normalized, read-out: Cellular ppRb inhibition IC50
[5] = Homo sapiens, JeKo-1, JeKo-1 cells, p-pRb % inhibition adjusted with total pRb levels, read-out: Normalized cellular ppRb inhibition IC50
[6] = Homo sapiens, JeKo-1, JeKo-1 cells, p-pRb Ser780 ELISA, non-normalized, read-out: Cellular ppRb inhibition IC50

Chain of CDK4/cyclin D1 (P11802 whole entry): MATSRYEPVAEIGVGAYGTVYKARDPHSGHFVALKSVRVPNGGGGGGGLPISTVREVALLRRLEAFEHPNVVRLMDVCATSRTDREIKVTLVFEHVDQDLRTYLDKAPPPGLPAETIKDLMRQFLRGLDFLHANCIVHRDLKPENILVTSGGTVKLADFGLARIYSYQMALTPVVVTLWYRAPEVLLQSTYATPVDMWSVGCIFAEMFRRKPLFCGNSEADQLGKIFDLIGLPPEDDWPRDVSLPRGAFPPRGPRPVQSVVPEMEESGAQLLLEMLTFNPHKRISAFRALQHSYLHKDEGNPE
Chain of CDK4/cyclin D1 (P24385 whole entry partner): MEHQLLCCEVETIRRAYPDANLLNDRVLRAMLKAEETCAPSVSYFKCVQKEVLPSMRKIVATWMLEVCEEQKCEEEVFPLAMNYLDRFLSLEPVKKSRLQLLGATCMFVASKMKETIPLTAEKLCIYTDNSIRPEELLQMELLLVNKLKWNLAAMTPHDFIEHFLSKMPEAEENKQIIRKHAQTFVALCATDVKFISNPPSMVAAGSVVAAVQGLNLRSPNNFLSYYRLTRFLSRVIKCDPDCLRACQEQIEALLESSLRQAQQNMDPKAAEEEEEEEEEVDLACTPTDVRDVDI
Chain of CDK1/cyclin B (P06493 whole entry, species assumed): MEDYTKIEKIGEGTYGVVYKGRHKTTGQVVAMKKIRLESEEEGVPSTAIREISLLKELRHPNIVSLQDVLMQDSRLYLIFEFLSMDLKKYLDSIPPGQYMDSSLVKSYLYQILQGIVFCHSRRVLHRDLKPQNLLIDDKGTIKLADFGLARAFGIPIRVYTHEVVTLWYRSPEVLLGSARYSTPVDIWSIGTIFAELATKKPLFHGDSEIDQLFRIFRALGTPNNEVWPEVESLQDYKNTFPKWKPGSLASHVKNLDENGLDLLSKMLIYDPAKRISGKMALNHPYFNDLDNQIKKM
Chain of CDK1/cyclin B (P14635 whole entry partner, species assumed): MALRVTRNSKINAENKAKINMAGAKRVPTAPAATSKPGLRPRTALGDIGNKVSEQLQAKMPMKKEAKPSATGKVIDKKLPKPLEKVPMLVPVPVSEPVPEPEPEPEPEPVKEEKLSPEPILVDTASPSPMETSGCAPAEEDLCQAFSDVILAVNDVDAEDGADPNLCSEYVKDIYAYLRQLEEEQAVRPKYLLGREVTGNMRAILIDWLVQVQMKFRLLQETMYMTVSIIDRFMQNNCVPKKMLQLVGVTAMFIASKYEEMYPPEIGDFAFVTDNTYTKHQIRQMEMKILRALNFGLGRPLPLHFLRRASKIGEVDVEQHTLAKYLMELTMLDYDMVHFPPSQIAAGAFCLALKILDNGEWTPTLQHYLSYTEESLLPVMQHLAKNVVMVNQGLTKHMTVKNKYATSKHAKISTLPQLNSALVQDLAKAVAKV

`CC(=O)N1C2CCC1CN(C(=O)c1ccc(Nc3ncc4cc(C(=O)N(C)C)n(C5CCCCCC5)c4n3)nc1)C2` [Example 8, 2-(5-(8-acetyl-3,8-diazabicyclo[3.2.1]octane-3-carbonyl)pyridin-2-ylamino)-7-cycloheptyl-N,N-dimethyl-7H-pyrrolo[2,3-d]pyrimidine-6-carboxamide] gave an IC50 (CDK4/cyclin D1; [2]) of 39 nM, an IC50 [1, 3] of 259 nM and an IC50 [1, 4] of 72 nM. The IC50 (CDK1/cyclin B) was greater than 15000 nM.

Molecule `CN(C)C(=O)c1cc2cnc(Nc3ccc(C(=O)N4C[C@@H]5CN[C@@H](C5)C4)cn3)nc2n1C1CCCC1` [Example 10, 7-Cyclopentyl-2-[5-((1S,5S)-3,6-diaza-bicyclo[3.2.1]octane-3-carbonyl)-pyridin-2-ylamino]-7H-pyrrolo[2,3-d]pyrimidine-6-carboxylic acid dimethylamide] has an IC50 (CDK4/cyclin D1; [2]) of 5 nM, an IC50 [1, 5] of 25 nM and an IC50 [1, 6] of 21 nM. The IC50 (CDK1/cyclin B) was 4140 nM.

For `CN(C)C(=O)c1cc2cnc(Nc3ccc(C(=O)N4C[C@H]5CN[C@H](C5)C4)cn3)nc2n1C1CCCC1` [Example 11, 7-Cyclopentyl-2-[5-((1R,5R)-3,6-diaza-bicyclo[3.2.1]octane-3-carbonyl)-pyridin-2-ylamino]-7H-pyrrolo[2,3-d]pyrimidine-6-carboxylic acid dimethylamide], the IC50 (CDK4/cyclin D1; [2]) was 9 nM, the IC50 [1, 5] was 68 nM and the IC50 [1, 6] was 39 nM. It also gave an IC50 (CDK1/cyclin B) greater than 15000 nM.

For `CN(C)C(=O)c1cc2cnc(Nc3ccc(C(=O)N4CC5CC(C4)N(CC(F)(F)F)C5)cn3)nc2n1C1CCCC1` (stereo not drawn) [Example 12, 7-Cyclopentyl-2-{5-[6-(2,2,2-trifluoro-ethyl)-3,6-diaza-bicyclo[3.2.1]octane-3-carbonyl]-pyridin-2-ylamino}-7H-pyrrolo[2,3-d]pyrimidine-6-carboxylic acid dimethylamide], the IC50 (CDK4/cyclin D1; [2]) was 49 nM, the IC50 [1, 3] was 724 nM and the IC50 [1, 4] was 255 nM. For the same molecule, the IC50 (CDK1/cyclin B) was greater than 15000 nM.

With `CN(C)C(=O)c1cc2cnc(Nc3ccc(C(=O)N4CC5CC(C4)N(C)C5)cn3)nc2n1C1CCCC1` (stereo not drawn) [Example 13, 7-Cyclopentyl-2-[5-(6-methyl-3,6-diaza-bicyclo[3.2.1]octane-3-carbonyl)-pyridin-2-ylamino]-7H-pyrrolo[2,3-d]pyrimidine-6-carboxylic acid dimethylamide] the IC50 (CDK4/cyclin D1; [2]) was 6 nM, the IC50 [1, 3] was 145 nM and the IC50 [1, 4] was 65 nM. It also gave an IC50 (CDK1/cyclin B) of 8440 nM.

With `CN(C)C(=O)c1cc2cnc(Nc3ccc(C(=O)N4CC5CC5(N(C)C)C4)cn3)nc2n1C1CCCC1` (stereo not drawn) [Example 17, 7-Cyclopentyl-2-[5-(1-dimethylamino-3-aza-bicyclo[3.1.0]hexane-3-carbonyl)-pyridin-2-ylamino]-7H-pyrrolo[2,3-d]pyrimidine-6-carboxylic acid dimethylamide] the IC50 (CDK4/cyclin D1; [2]) was 65 nM, the IC50 [1, 3] was 643 nM and the IC50 [1, 4] was 281 nM. It also gave an IC50 (CDK1/cyclin B) greater than 15000 nM.

Work on `CN(C)C(=O)c1cc2cnc(Nc3ccc(C(=O)N4CC5CCC(C4)N5)cn3)nc2n1C1CCCC1` [Example 18, 7-Cyclopentyl-2-[5-(3,8-diaza-bicyclo[3.2.1]octane-3-carbonyl)-pyridin-2-ylamino]-7H-pyrrolo[2,3-d]pyrimidine-6-carboxylic acid dimethylamide] yielded an IC50 (CDK4/cyclin D1) of 8 to 24 nM, an IC50 [1, 5] of 26 to 90 nM and an IC50 [1, 6] of 12 to 37 nM. For the same molecule, the IC50 (CDK1/cyclin B) was 13200 nM.

With `CN(C)C(=O)c1cc2cnc(Nc3ccc(C(=O)N4C[C@@H]5C[C@H]4CN5)cn3)nc2n1C1CCCC1` [Example 19, 7-Cyclopentyl-2-[5-((S,S)-2,5-diaza-bicyclo[2.2.1]heptane-2-carbonyl)-pyridin-2-ylamino]-7H-pyrrolo[2,3-d]pyrimidine-6-carboxylic acid dimethylamide] the IC50 (CDK4/cyclin D1; [2]) was 5 to 8 nM, the IC50 [1, 5] was 64 to 116 nM and the IC50 [1, 6] was 54 to 55 nM. The IC50 (CDK1/cyclin B) was greater than 15000 nM.

Work on `CN(C)C(=O)c1cc2cnc(Nc3ccc(C(=O)N4CCN5CCCC5C4)cn3)nc2n1C1CCCC1` (stereo not drawn) [Example 20, 7-Cyclopentyl-2-[5-(hexahydro-pyrrolo[1,2-a]pyrazine-2-carbonyl)-pyridin-2-ylamino]-7H-pyrrolo[2,3-d]pyrimidine-6-carboxylic acid dimethylamide] yielded an IC50 (CDK4/cyclin D1; [2]) of 64 nM, an IC50 [1, 5] of 452 nM and an IC50 [1, 6] of 267 nM. The IC50 (CDK1/cyclin B) was greater than 15000 nM.

`CN(C)C(=O)c1cc2cnc(Nc3ccc(C(=O)N4CCN5CCC[C@@H]5C4)cn3)nc2n1C1CCCC1` [Example 21, 7-Cyclopentyl-2-[5-((R)-hexahydro-pyrrolo[1,2-a]pyrazine-2-carbonyl)-pyridin-2-ylamino]-7H-pyrrolo[2,3-d]pyrimidine-6-carboxylic acid dimethylamide] showed an IC50 (CDK4/cyclin D1; [2]) of 47 nM, an IC50 [1, 5] of 401 nM and an IC50 [1, 6] of 187 nM. For the same molecule, the IC50 (CDK1/cyclin B) was greater than 15000 nM.

`CN(C)C(=O)c1cc2cnc(Nc3ccc(C(=O)N4C5CCC4CNC5)cn3)nc2n1C1CCCC1` [Example 22, 7-Cyclopentyl-2-[5-(3,8-diaza-bicyclo[3.2.1]octane-8-carbonyl)-pyridin-2-ylamino]-7H-pyrrolo[2,3-d]pyrimidine-6-carboxylic acid dimethylamide] showed an IC50 (CDK4/cyclin D1) of 62 to 83 nM, an IC50 [1, 5] of 86 to 817 nM and an IC50 [1, 6] of 86 to 513 nM. For the same molecule, the IC50 (CDK1/cyclin B) was greater than 15000 nM.

With `CNC(=O)c1cc2cnc(Nc3ccc(C(=O)N4CC5CCC(C4)N5)cn3)nc2n1C1CCCC1` [Example 23, 7-Cyclopentyl-2-[5-(3,8-diaza-bicyclo[3.2.1]octane-3-carbonyl)-pyridin-2-ylamino]-7H-pyrrolo[2,3-d]pyrimidine-6-carboxylic acid methylamide] the IC50 (CDK4/cyclin D1; [2]) was 1630 nM, the IC50 [1, 5] was 6770 nM and the IC50 [1, 6] was 6770 nM. For the same molecule, the IC50 (CDK1/cyclin B) was greater than 15000 nM.

`CNC(=O)c1cc2cnc(Nc3ccc(C(=O)N4C[C@@H]5C[C@H]4CN5)cn3)nc2n1C1CCCC1` [Example 24, 7-Cyclopentyl-2-[5-((S,S)-2,5-diaza-bicyclo[2.2.1]heptane-2-carbonyl)-pyridin-2-ylamino]-7H-pyrrolo[2,3-d]pyrimidine-6-carboxylic acid methylamide] gave an IC50 (CDK4/cyclin D1; [2]) of 49 nM, an IC50 ([1]; JeKo-1 cells, p-pRb % inhibition adjusted with total pRb levels, read-out: Normalized cellular ppRb inhibition IC50) of 272 nM and an IC50 ([1]; JeKo-1 cells, p-pRb Ser780 ELISA, non-normalized, read-out: Cellular ppRb inhibition IC50) of 266 nM. The IC50 (CDK1/cyclin B) was greater than 15000 nM.

With `CN(C)C(=O)c1cc2cnc(Nc3ccc(C(=O)N4CCC[C@@H]5CCN[C@@H]5C4)cn3)nc2n1C1CCCC1` [Example 25, 7-Cyclopentyl-2-[5-((3aR,8aS)-octahydro-pyrrolo[2,3-c]azepine-7-carbonyl)-pyridin-2-ylamino]-7H-pyrrolo[2,3-d]pyrimidine-6-carboxylic acid dimethylamide] the IC50 (CDK4/cyclin D1; [2]) was 8 nM, the IC50 [1, 5] was 22 nM and the IC50 [1, 6] was 20 nM. The IC50 (CDK1/cyclin B) was greater than 15000 nM.

Work on `CN(C)C(=O)c1cc2cnc(Nc3ccc(C(=O)N4CC5CCC4C5O)cn3)nc2n1C1CCCC1` (stereo not drawn) [Example 26] yielded an IC50 (CDK4/cyclin D1; [2]) of 38 nM, an IC50 [1, 3] of 388 nM and an IC50 [1, 4] of 325 nM. It also gave an IC50 (CDK1/cyclin B) greater than 15000 nM.
